Measurements: patent US4891374A, “Imidazo- and triazolothiadiazines” (Hoechst Aktiengesellschaft, priority 1987, dated 1990)
Structures can show the parent of a compound that is named as a salt.

Assays:
Adjuvant arthritis = Adjuvant arthritis (Pearson): reduction in increase in paw volume; assay type: in vivo, male rats of the Wistar-Lewis strain; details: 50 mg/kg p.o. once daily day 1 to day 5; reduction in increase in paw volume vs control
Description: The investigations were carried out using the method of Pearson (Arthrit. Rheum. 2 (1959), p. 44). The experimental animals used were male rats of the Wistar-Lewis strain having a body weight between 130 and 200 g. Compounds to be tested were administered orally (p.o.) once daily from day 1 to day 5 of the experiment in doses of 50 mg per kg of body weight. The animals in a control group were given only the vehicle. Each preparation group and the control group contained 8 animals. The criterion used to determine the action was the percentage reduction in the increase in paw volume compared to that of the untreated control group.

5-lipoxygenase = experiment: Inhibition of 5-lipoxygenase in isolated polymorphonuclear granulocytes (LTB4 and 5-HETE formation); assay type: cell-based, human; details: 10^-5 to 10^-6 mol/l; pre-incubation 15 minutes; calcium ionophor A 23 187-stimulated; 15 minutes at 37° C.
Description: The inhibitory action of the compounds according to the invention on 5-lipoxygenase-catalyzed degradation of arachidonic acid was determined, as usual, in in-vitro experiments on isolated polymorphonuclear human granulocytes. To this purpose, cells stimulated by calcium ionophor A 23 187 (Calbiochem GmbH, Frankfurt/Main, FRG, Biochemical and Immunochemical Catalog 1985, p. 284) were incubated with ^14 C-labeled arachidonic acid, and the major radioactive degradation products of arachidonic acid formed after 15 minutes at 37° C. by biotransformation, 5-hydroxyeicosatetraenoic acid (5-HETE) and leucotriene B4 (LTB4), which has a particularly strong pro-inflammatory action, were determined quantitatively with the aid of a radio monitor after separation by high-pressure liquid chromatography (HPLC).

[1] = test system: mitochondrial lipid peroxidation; experiment: In-vitro inhibition of lipid peroxidation (thiobarbituric acid test), mitochondria; assay type: biochemical; details: rat liver mitochondria
Excerpt: (§1) Further convincing evidence of the pronounced protective action of the compounds according to the invention against aggressive oxygen radicals is provided by the thiobarbituric acid test of A. Ottolenghi (Arch. Biochem. Biophys. 79 (1959) pp. 355-363). Using this in-vitro method, the influence on microsomal and mitochondrial lipid peroxidation by antioxidatively active preparations can be determined from the malonodialdehyde produced on oxidative degradation of membrane-bound, polyunsaturated fatty acids.
(§2) Here too, the compounds of the formula I exerted a strong inhibitory action.

[2] = test system: lymphocytes from the spleen; experiment: Inhibition of immunopathological processes: type II collagen-induced arthritis, immune activity of spleen lymphocytes towards mitogens; assay type: in vivo, male Wistar rats; details: 20-day treatment phase
Excerpt: It is generally accepted today that the advanced course of inflammatory rheumatic disorders is caused mainly by disfunctions in the immune system and that causal therapy can only succeed using medicaments which are capable of interrupting these immunopathological processes.
In this experiment, arthritis was induced in male Wistar rats by means of type II collagen, which could be obtained by standard methods of Miller and Rhodes (Meth. Enzymol. 82 (1982), p. 33) from the nasal septum of the calf and, mixed with Freund's incomplete adjuvant, was injected intradermally into the animals. This immunization procedure was repeated 7 days later. 20 days after the initial immunization, the sick rats were divided into groups each containing 7 animals, which, in the subsequent 20-day treatment phase, received the respective test substance or the pure vehicle (control group) once daily orally.
On day 41 of the experiment, ie. one day after the final administration of substance, lymphocytes were obtained from the spleen of the experimental animals and their immune activity towards mitogens was investigated, since the immune status of lymphocytes is also sensitively impaired in this model.

lymphocytes = experiment: Inhibition of immunopathological processes: adjuvant arthritis, immune activity of lymphocytes towards mitogens; assay type: in vivo, rat
in vivo [3] = details: mouse, ip
Description: The LD50 values were determined by standard methods from the mortality occurring within 7 days in NMRI (Naval Medical Research Institute) mice (6 animals per dose) after a single intraperitoneal (i.p.) administration.

in vivo [4] = details: rat, po
Description: The investigation was in each case carried out on 10 male Sprague-Dawley rats whose gastric mucous membrane had been sensitized by hunger stress. The body weight of the animals was between 200 and 300 g. While allowing free access to the drinking water, the feed was withdrawn 48 hours before administration of the test preparations until sacrifice of the animals. The rats were sacrificed 24 hours after oral administration of the substance, and the stomachs were removed, cleaned under running water and inspected for mucous membrane lesions. All macroscopically visible lesions were regarded as ulcers. The number of animals having ulcers was determined per dose, and this figure was used to calculate, by the method of Litchfield and Wilcoxon (J. Pharmacol. Exp. Ther. 96 (1949), p. 99), the UD50 values, ie. the doses at which lesions were caused in 50% of the animals.

[5] = test system: Adriamycin (doxorubicin) induced inflammation; experiment: Adriamycin-induced inflammation (paw volume); assay type: in vivo, male Sprague-Dawley rats; details: for protective effect against Adriamycin-induced tissue destruction: orally once daily on 4 successive days
Excerpt: According to current opinion, aggressive oxygen radicals, which are formed to excess during the chronic inflammation process and, as highly toxic inflammation mediators themselves, perpetually maintain the destruction of connective tissue which proceeds via irreversible lipid peroxidation of the cell membranes, participate prominently in the progressive course, caused by a number of factors, of rheumatoid arthritis and other inflammatory disorders. As a consequence, pharmaceuticals having an antioxidative action and having the capability to deactivate these extremely cytotoxic oxygen radicals should allow specific intervention in the chronic course of the inflammation. A suitable animal model for this type of tissue destruction caused by oxygen radicals is Adriamycin (doxorubicin) induced inflammation in the rat. The investigations were carried out using the method of D. M. Siegel et al. (Inflammation 4 (1980), p. 233) on male Sprague-Dawley rats having a body weight between 200 and 230 g in groups each containing 7 animals, which received 0.1 mg of Adriamycin, dissolved in 0.1 ml of 0.9% strength sodium chloride solution, by means of subcutaneous injection into the left rear paw. The increase in paw volume was determined 72 hours later by plethysmographic measurement as a measure of the degree of inflammation. The test preparations were administered orally in 1% strength aqueous carboxymethylcellulose suspension once daily on 4 successive days, starting with the day of Adriamycin injection.

[6] = test system: microsomal lipid peroxidation; experiment: In-vitro inhibition of lipid peroxidation (thiobarbituric acid test), microsomes; assay type: biochemical; details: rat liver microsomes
Excerpt: as §1, §2

Q: With `CC(C)(C)c1cc(C2=NN3CCN=C3SC2)cc(C(C)(C)C)c1O` [Example 1, 3-(3,5-Di-tert.butyl-4-hydroxyphenyl)-6,7-dihydro-2H-imidazo[2,1-b][1,3,4]thiadiazine hydrochloride] as the compound, how does the “Adjuvant Arthritis (% inhibition at 50 mg/kg p.o.)” value (Adjuvant arthritis) read?
A: The value was 62%.

Q: What about the “inhibition of formation of 5-HETE” value (5-lipoxygenase) of the same compound?
A: The value was “significantly inhibit”.

Q: And the “inhibition of formation of LTB4” value (5-lipoxygenase)?
A: Its value is “significantly inhibit”.

Q: And the IC50 [1]?
A: Its IC50 is 4000 nM.

Q: What about the “immune function of B lymphocytes” value ([2]; 25 mg/kg p.o. once daily) of the same compound?
A: The value was “completely normalized”.

Q: What about the “immune function of T lymphocytes” value ([2]; 25 mg/kg p.o. once daily) of the same compound?
A: Its value is “completely normalized”.

Q: And the “normalization of the immunoreactivity” value (lymphocytes; oral administration of 20 mg/kg)?
A: Its value is “substantial normalization of the immunoreactivity”.

Q: And the LD50 at 168 h (in vivo [3])?
A: The LD50 at 168 h was over 1200 mg/kg.

Q: What about the TD50 at 24 h (in vivo [4]) of the same compound?
A: The TD50 at 24 h was 400 mg/kg.

Q: And the “inhibition of Adriamycin-induced tissue destruction” value ([5]; 80 mg/kg p.o. once daily on 4 successive days, paw volume 72 hours after Adriamycin)?
A: The value was 55%.

Q: And the “protective effect against Adriamycin-induced tissue destruction” value [5]?
A: Its value is “dose-dependent protective effect”.

Q: And the IC50 [6]?
A: The IC50 was 500 nM.

Q: Which “Adjuvant Arthritis (% inhibition at 50 mg/kg p.o.)” value (Adjuvant arthritis) does the source give for `CC1Sc2nncn2N=C1c1cc(C(C)(C)C)c(O)c(C(C)(C)C)c1` (stereo not shown) [Example 5, 3-(3,5-Di-tert.butyl-4-hydroxyphenyl)-2-methyl-2H-s-triazolo[3,4-b][1,3,4]thiadiazine] here?
A: Its value is 56%.

Q: What about the LD50 at 168 h (in vivo [3]) of the same compound?
A: Its LD50 at 168 h is over 1200 mg/kg.

Q: And the TD50 at 24 h (in vivo [4])?
A: The TD50 at 24 h was over 200 mg/kg.

Q: What does the source list for `CC1SC2=NCCN2N=C1c1cc(C(C)(C)C)c(O)c(C(C)(C)C)c1` (stereo not shown) [Example 2, 3-(3,5-Di-tert.butyl-4-hydroxyphenyl)-2-methyl-6,7-dihydro-2H-imidazo[2,1-b][1,3,4]thiadiazine hydrochloride]?
A: Adjuvant Arthritis (% inhibition at 50 mg/kg p.o.) (Adjuvant arthritis): 63%; LD50 at 168 h (in vivo [3]): > 1200 mg/kg; TD50 at 24 h (in vivo [4]): 200 mg/kg

Q: For `COc1ccc2cc(C(C)C(=O)O)ccc2c1` (stereo not shown) [naproxen, 2-(6-methoxy2-naphthyl)-propionic acid, reference compound], which “Adjuvant Arthritis (% inhibition at 50 mg/kg p.o.)” value (Adjuvant arthritis) is on record?
A: Its value is 55%.

Q: What about the “curative effects on the greatly weakened immune system” value ([2]; once daily orally) of the same compound?
A: Its value is “no action”.

Q: And the “stimulating action on suppressed immunological response” value (lymphocytes; doses up to 25 mg/kg)?
A: The value was “ineffective”.

Q: What about the “protective effect against Adriamycin-induced tissue destruction” value [5] of the same compound?
A: Its value is “ineffective”.

Q: Which results are given for `CC(C)(C)c1cc(C2=Nn3ccnc3SC2)cc(C(C)(C)C)c1O` [Example 4, 3-(3,5-Di-tert.butyl-4-hydroxyphenyl)-2H-imidazo[2,1-b][1,3,4]thiadiazine hydrochloride]?
A: Adjuvant Arthritis (% inhibition at 50 mg/kg p.o.) (Adjuvant arthritis): 69%; LD50 at 168 h (in vivo [3]): 300 to 600 mg/kg; TD50 at 24 h (in vivo [4]): > 200 mg/kg

Q: With `CC(C)(C)c1cc(C2=NN3CC(=O)N=C3SC2)cc(C(C)(C)C)c1O` [Example 6, 3-(3,5-Di-tert.butyl-4-hydroxyphenyl)-7-oxo-6,7-dihydro-2H-imidazo[2,1-b][1,3,4]-thiadiazine hydrobromide] as the compound, how does the “Adjuvant Arthritis (% inhibition at 50 mg/kg p.o.)” value (Adjuvant arthritis) read?
A: Its value is 73%.

Q: What about the LD50 at 168 h (in vivo [3]) of the same compound?
A: The LD50 at 168 h was 300 to 600 mg/kg.

Q: And the TD50 at 24 h (in vivo [4])?
A: The TD50 at 24 h was over 200 mg/kg.

Q: For `CC(C)(C)c1cc(C2=NN3C(=O)CN=C3SC2)cc(C(C)(C)C)c1O` [Example 7, 3-(3,5-Di-tert.butyl-4-hydroxyphenyl)-6-oxo-6,7-dihydro-2H-imidazo[2,1-b][1,3,4]thiadiazine hydrobromide], which “Adjuvant Arthritis (% inhibition at 50 mg/kg p.o.)” value (Adjuvant arthritis) is on record?
A: The value was 59%.

Q: What about the LD50 at 168 h (in vivo [3]) of the same compound?
A: The LD50 at 168 h was 300 to 600 mg/kg.

Q: And the TD50 at 24 h (in vivo [4])?
A: The TD50 at 24 h was over 200 mg/kg.
